# Where “and” joins values, the source holds several entries; their conditions need not be identical. Equal entries are not always repeated.
# Test system: urate crystal induced synovitis of the stifle joint in dogs
# Assay: Urate crystal induced synovitis of the stifle joint in dogs, force plate analysis
# Format: in vivo, dog
# Conditions: for Z peak force of the injected rear leg, percent of pre-values, Mean: six dogs
# From the text: Objective: The objective of this study is to evaluate the analgesic and anti-inflammatory effect of a single dose of COMPOUND A using a model of urate crystal induced synovitis of the stifle joint in dogs via kinetic gait analysis (force plate).
# Animals: A total of six Beagle dogs (4 males and 2 females) aged between 2 and 9 years and weighing 13 to 15.8 kg are recruited for this study. The dogs are housed in groups of two in light and temperature controlled pens. Each dogs is offered 150-300 g dry pellet food once a day in the morning. Water is available ad libitum through nipple drinkers.
# Acute synovitis model: In this study, acute but reversible arthritis is induced by intra-articular (left or right stifle joint) injection of a saline (NaCl 0.9%) suspension containing 15 mg of monosodium urate crystals.
# Intra-articular injections: Dogs are sedated with medetomidine (40 microg/kg, i.v.). The left of right stifle joint is clipped and prepared aseptically for intrasynovial injection. A 20-gauge needle is inserted lateral to the patellar ligament and introduced into the articular space. To ensure correct placement of the needle, a small amount of synovial fluid is aspirated with an empty 2 ml syringe. Then, approximately 2 ml of the monosodium urate suspension is injected in the joint cavity through the previously placed needle. Sedation is then antagonized with injection of atipamezol (40 μg/kg, i.v.). Dogs are then brought back to their pens for approximately 3 hours. Usually, after this period, the lameness induced by the injection of the monosodium urate crystals suspension is developed to a point where the dogs become non-weight-bearing on the injected leg during standing, walking and trotting. If at this time the dog's lameness grade is not sufficient, the dogs are excluded from this part of the trial.
# Treatments: According to the protocol, both treatments are administered via the oral route approximately 3 hours after the injection of the monosodium urate crystals suspension, and only to the dogs that developed a high-grade lameness. For part 1, half of the dogs are allocated to the COMPOUND A-treated group and the other dogs are allocated to the control group. For part 2, treatments are crossed, so that dogs that are treated with COMPOUND A in part 1 are administered the placebo treatment, and vice versa. The treatments are administered at the doses of 0 mg/kg (placebo) and 2 mg/kg. COMPOUND A is mixed to a placebo formulation (micro-emulsion vehicle without active ingredient) just before administration. The appropriate volumes based on the dogs' bodyweights are given per os with syringes. Thereafter, all syringes are rinsed with NaCl 0.9% and applied to the dogs. The control dogs receive 10 ml of the identical placebo formulation.
# Force plate analysis: A biomechanical platform (OR6-6-1000, Advanced Mechanical Technologies Inc., Watertown, Mass.) that measures 3 dimensional forces and impulses is used for our study. The dogs are trotted over the force plate 1, 2, 3, 4 and 6 hours after administration of the treatments to obtain data of vertical forces and impulses of the affected limb. Baseline values included force plate data obtained the day before the induction of lameness and are set as 100% of the dog's capacity. In order to minimize the effect of inter-individual variation we choose to calculate and express the measured data as percentage of the baseline values. By use of a software (Acquire Software 7.20e, Robert Wells, Mich. State University, East Lansing, Mich.) installed with the force plate and a computer, the vertical peak force (ZpkF) is measured. All data are normalized to the bodyweight of the dogs. Data on other ground reaction forces (e.g. vertical impulse, braking and propulsion peak forces) are also recorded and stored but not analyzed. Data from 5 to 6 valid trials of the injected limb at a given measurement time point are averaged and expressed as percentage of the pre-values. […]
smiles,measurement,setting,value
"COC1=Nc2cc(Cl)ccc2/C(=C/C(=O)O)c2sc(Cl)cc21 [COMPOUND A, [2,7-Dichloro-10-methoxy-3-thia-9-aza-benzo[f]azulen-(4Z)-ylidene]-acetic acid]","Z peak force of the injected rear leg, percent of pre-values, individual dogs","2 mg/kg p.o., T + 1 H",0.0%
same,"Z peak force of the injected rear leg, percent of pre-values, Mean","2 mg/kg p.o., T + 1 H",0.0%
same,"Z peak force of the injected rear leg, percent of pre-values, individual dogs","2 mg/kg p.o., T + 2 H",0.0% (5×) and 65.8%
same,"Z peak force of the injected rear leg, percent of pre-values, Mean","2 mg/kg p.o., T + 2 H",11.0%
same,"Z peak force of the injected rear leg, percent of pre-values, individual dogs","2 mg/kg p.o., T + 3 H",86.7% and 93.8% and 71.9% and 79.1% and 0.0% (2×)
same,"Z peak force of the injected rear leg, percent of pre-values, Mean","2 mg/kg p.o., T + 3 H",55.2%
same,"Z peak force of the injected rear leg, percent of pre-values, individual dogs","2 mg/kg p.o., T + 4 H",80.9% and 87.1% and 103.1% and 82.5% and 58.2% and 0.0%
same,"Z peak force of the injected rear leg, percent of pre-values, Mean","2 mg/kg p.o., T + 4 H",68.6%
same,"Z peak force of the injected rear leg, percent of pre-values, individual dogs","2 mg/kg p.o., T + 6 H",78.5% and 106.1% and 87.7% and 85.2% and 83.7%
same,"Z peak force of the injected rear leg, percent of pre-values, Mean","2 mg/kg p.o., T + 6 H",91.2%
same,"Z peak force of the injected rear leg, percent of pre-values, individual dogs","Prevs (day before induction of lameness, set as 100%), 2 mg/kg p.o. group, dogs 519, 525, 652, 664, 2201, 2207",100.0%
same,"Z peak force of the injected rear leg, percent of pre-values, Mean","Prevs (set as 100%), 2 mg/kg p.o. group",100.0%

# Reference: US8258128B2, “Organic compounds” (Novartis AG, priority 2006, dated 2012)
